Drawing on patent publication US9126979B2, “Compounds for inhibiting the interaction of BCL2 with binding partners” (Novartis AG, priority 2011, dated 2015), this text covers IC50 for twelve molecules.

The target of experiment [1] is BCL-2 binding to biotinylated BAD peptide (Homo sapiens (Human), UniProt P10415). As to the kind of experiment: SPR (Biacore) solution inhibition assay, BCL-2 binding to BAD peptide surface. Particulars: read-out: BCL2_SPR IC50 BAD. An excerpt:
(§1) The present method includes utility of a Surface plasmon resonance (SPR)-based biosensor (Biacore™′ GE Healthcare, Uppsala, Sweden) to characterize BCL-2 inhibitors.
(§2) Biacore™ utilizes the phenomenon of surface plasmon resonance (SPR) to detect and measure binding interactions. In a typical Biacore experiment, one of the interacting molecules (ligand) is immobilized on a flexible dextran matrix while the interacting partner (analyte) is allowed to flow across that surface. A binding interaction results in an increase in mass on the sensor surface and a corresponding direct change in the refractive index of the medium in the vicinity of the sensor surface. Changes in refractive index or signal are recorded in resonance units (R.U.) Signal changes due to association and dissociation of complexes are monitored in a non-invasive manner, continuously and in real-time, the results of which are reported in the form of a sensorgram.
(§3) The SPR assay is configured to examine solution inhibition of BCL-2 binding to peptide derivatized sensor surfaces to generate IC50 values as a measure of inhibitor potency.
(§4) Biacore™ A100 (GE Healthcare, Uppsala, Sweden) was used to conduct all experiments reported herein. Sensor surface preparation and all interaction analyses experiments were performed at 25° C. Reagents were purchased from GE Healthcare. Running buffer containing 10 mM Hepes, pH7.4, 150 mM sodium chloride, 1.25 mM Dithiothreitol, 3% Dimethyl sulfoxide and 0.05% polysorbate 20 were utilized throughout all analyses.
(§5) Biotinylated BAK, BAD and NOXA peptides were diluted to 10 nM in running buffer and captured onto a sensor surface pre-derivatized with streptavidin (sensor chip SA) to peptide surface densities in the range 50-100 R.U. Peptide captured surfaces were blocked with 50004 PEO2-Biotin.
(§6) Interaction analyses were performed by first equilibrating each sample within a 6 point three fold compound dilution series in the range […] with 56 nM BCL-2 for one hour during instrument start-up procedures. Protein compound mixtures were then injected over each peptide surface in parallel for 60 seconds at a flow-rate of 30 μL/min. 56 nM BCL-2 control samples were also prepared and run at regular intervals during the assay. Surface regeneration was performed at the end of each analysis cycle by two 30 second injections of 10 mM Glycine, pH 2.5, 1M Sodium Chloride, 0.05% polysorbate 20. Samples and control compound samples were run in duplicate and controls are also run at regular intervals during the assay to monitor surface and assay performance.
(§7) Data analyses are carried out using Biacore™ A100 evaluation software v1.1 to validate assay quality. Binding level report points were used relative to BCL-2 control samples to calculate % inhibition values for each compound protein mixture. […] The range of data shown in table 1 represents the high and low IC50 values obtained from multiple experiments.

Experiment [2] deals with BCL-2 binding to biotinylated BAK peptide (Homo sapiens (Human), UniProt P10415). As to the kind of experiment: SPR (Biacore) solution inhibition assay, BCL-2 binding to BAK peptide surface. The following applies: read-out: BCL2_SPR IC50 BAK.
BCL-2 binding to biotinylated BAK peptide, sequence (P10415 whole entry): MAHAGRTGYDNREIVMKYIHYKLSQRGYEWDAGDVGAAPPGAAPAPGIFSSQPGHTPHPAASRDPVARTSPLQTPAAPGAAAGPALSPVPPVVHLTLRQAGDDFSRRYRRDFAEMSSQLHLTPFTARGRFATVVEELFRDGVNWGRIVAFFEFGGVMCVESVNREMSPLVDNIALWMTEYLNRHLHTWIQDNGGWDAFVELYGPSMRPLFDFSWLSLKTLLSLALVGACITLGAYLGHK
From the text: as §1, §2, §3, §4, §5, §6, §7
A general note: SPR reads the build-up and loss of mass on a sensor chip optically.

pIC50: −log10 of the molar value.

BCL-2 binding to biotinylated BAD peptide, sequence (P10415 whole entry): as above

As usually defined, the pIC50 is the IC50 on a negative log10 scale, so that one unit is a factor of ten. Consider `CCCCN(CCCC)C(=O)c1cc(C)n(-c2cc(OCC(=O)Nc3ccccc3)ccc2C(=O)N2Cc3ccccc3C[C@H]2CO)n1` [Example 6, 1-[2-((S)-3-Hydroxymethyl-3,4-dihydro-1H-isoquinoline-2-carbonyl)-5-phenylcarbamoylmethoxy-phenyl]-5-methyl-1H-pyrazole-3-carboxylic acid dibutylamide], for which the results for the pIC50 in experiment [1] and in experiment [2] were 5.68 and 5.88 to 5.90, respectively.

`CCCCN(CCCC)C(=O)c1nn(-c2ccc(O)cc2C(=O)N2Cc3ccccc3C[C@H]2CO)c(C)c1Cl` [Example 9]: the pIC50 in experiment [1] was 6.20 to 6.21; in experiment [2], 6.36 to 6.39.

In the case of `CCCCN(CCCC)C(=O)c1nn(-c2ccc(OCC(=O)OCC)cc2C(=O)N2Cc3ccccc3C[C@H]2CO)c(C)c1Cl` [Example 1, [4-(4-Chloro-3-dibutylcarbamoyl-5-methyl-pyrazol-1-yl)-3-((S)-3-hydroxymethyl-3,4-dihydro-1H-isoquinoline-2-carbonyl)-phenoxy]-acetic acid ethyl ester], the pIC50 is 6.29 in experiment [1] and 6.39 to 6.44 in experiment [2].

For the molecule `CCCCN(CCCC)C(=O)c1cc(C)n(-c2cc(OCC(=O)Nc3ccccc3F)ccc2C(=O)N2Cc3ccccc3C[C@H]2CO)n1` [Example 8], the pIC50 was 5.52 to 5.54 in experiment [1] and 5.76 to 5.77 in experiment [2].

In the case of `CCCCN(CCCC)C(=O)c1cc(C)n(-c2cc(OC)ccc2C(=O)N2Cc3ccccc3C[C@H]2CO)n1` [Example 12], the pIC50 in experiment [1] is 6.31 to 6.35; in experiment [2] it was 6.52 to 6.57.

On to `CCCCN(CCCC)C(=O)c1nn(-c2ccc(OCC(=O)Nc3ccccc3)cc2C(=O)N2Cc3ccccc3C[C@H]2CO)c(C)c1Cl` [Example 3, 4-Chloro-1-[2-((S)-3-hydroxymethyl-3,4-dihydro-1H-isoquinoline-2-carbonyl)-4-phenylcarbamoylmethoxy-phenyl]-5-methyl-1H-pyrazole-3-carboxylic acid dibutylamide], for which the pIC50 in experiment [1] is 6.32 to 6.36; in experiment [2] it was 6.36 to 6.39.

Regarding `CCCCN(CCCC)C(=O)c1cc(C)n(-c2cc(O)ccc2C(=O)N2Cc3ccccc3C[C@H]2CO)n1` [Example 11], the pIC50 was 6.52 to 6.59 in experiment [1] and 6.59 to 6.62 in experiment [2].

Regarding `CCCCN(CCCC)C(=O)c1nn(-c2ccc(OCC(=O)O)cc2C(=O)N2Cc3ccccc3C[C@H]2CO)c(C)c1Cl` [Example 2, [4-(4-Chloro-3-dibutylcarbamoyl-5-methyl-pyrazol-1-yl)-3-((S)-3-hydroxymethyl-3,4-dihydro-1H-isoquinoline-2-carbonyl)-phenoxy]-acetic acid], the pIC50 in experiment [1] was 6.82 to 6.83; in experiment [2] it was 6.86 to 6.88.

For the molecule `CCCCN(CCCC)C(=O)c1nn(-c2ccc(OC)cc2C(=O)N2Cc3ccccc3C[C@H]2CO)c(C)c1Cl` [Example 10], the pIC50 in experiment [1] was 5.77 to 5.86; in experiment [2] it was 6.01 to 6.09.

Turning to `CCCCN(CCCC)C(=O)c1cc(C)n(-c2cc(OCC(=O)OCC)ccc2C(=O)N2Cc3ccccc3C[C@H]2CO)n1` [Example 4, [3-(3-Dibutylcarbamoyl-5-methyl-pyrazol-1-yl)-4-((S)-3-hydroxymethyl-3,4-dihydro-1H-isoquinoline-2-carbonyl)-phenoxy]-acetic acid ethyl ester], the values for the pIC50 in experiment [1] and in experiment [2] were 5.87 to 5.93 and 6.11, respectively.

In the case of `CCCCN(CCCC)C(=O)c1cc(C)n(-c2cc(OCC(=O)O)ccc2C(=O)N2Cc3ccccc3C[C@H]2CO)n1` [Example 5, [3-(3-Dibutylcarbamoyl-5-methyl-pyrazol-1-yl)-4-((S)-3-hydroxymethyl-3,4-dihydro-1H-isoquinoline-2-carbonyl)-phenoxy]-acetic acid], the pIC50 in experiment [1] was 6.98 to 7.00; in experiment [2], 7.06 to 7.08.

In the case of `CCCCN(CCCC)C(=O)c1cc(C)n(-c2cc(OCC(=O)OCc3ccccc3)ccc2C(=O)N2Cc3ccccc3C[C@H]2CO)n1` [Example 7, [3-(3-Dibutylcarbamoyl-5-methyl-pyrazol-1-yl)-4-((S)-3-hydroxymethyl-3,4-dihydro-1H-isoquinoline-2-carbonyl)-phenoxy]-acetic acid benzyl ester], the pIC50 in experiment [1] is 5.81 to 5.82; in experiment [2], 5.88 to 5.90.
